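Test compounds were applied to cells in 96-well plates for 48 hours at 5 doses. The concentration for full growth arrest is given as TGI.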
Legend:
Assay in all cases: DTP human tumour cell line panel, 48 h
[1] = test system: 786-0 renal
[2] = test system: A498 renal
[3] = test system: A549 NSCLC
[4] = test system: ACHN renal
[5] = test system: CAKI-1 renal
[6] = test system: CCRF-CEM leukemia
[7] = test system: COLO 205 colon
[8] = test system: DLD-1 colon
[9] = test system: DMS 273 small cell lung
[10] = test system: EKVX NSCLC
[11] = test system: HCC-2998 colon
[12] = test system: HCT-116 colon
[13] = test system: HCT-15 colon
[14] = test system: HL-60(TB) leukemia
[15] = test system: HOP-18 NSCLC
[16] = test system: HOP-62 NSCLC
[17] = test system: HOP-92 NSCLC
[18] = test system: HT29 colon
[19] = test system: IGROV1 ovarian
[20] = test system: KM12 colon
[21] = test system: KM20L2 colon
[22] = test system: LOX IMVI melanoma
[23] = test system: LXFL 529 NSCLC
[24] = test system: M14 melanoma
[25] = test system: M19-MEL melanoma
[26] = test system: MALME-3M melanoma
[27] = test system: MOLT-4 leukemia
[28] = test system: NCI-H226 lung
[29] = test system: NCI-H460 lung
[30] = test system: NCI-H522 lung
[31] = test system: OVCAR-3 ovarian
[32] = test system: OVCAR-4 ovarian
[33] = test system: OVCAR-5 ovarian
[34] = test system: OVCAR-8 ovarian
[35] = test system: RPMI-8226 leukemia
[36] = test system: RXF 393 renal
[37] = test system: RXF-631 renal
[38] = test system: SF-268 CNS
[39] = test system: SF-295 CNS
[40] = test system: SF-539 CNS
[41] = test system: SK-MEL-28 melanoma
[42] = test system: SK-MEL-5 melanoma
[43] = test system: SK-OV-3 ovarian
[44] = test system: SN12C renal
[45] = test system: SNB-19 CNS
[46] = test system: SNB-75 CNS
[47] = test system: SNB-78 CNS
[48] = test system: SR leukemia
[49] = test system: SW-620 colon
[50] = test system: TK-10 renal
[51] = test system: U251 CNS
[52] = test system: UACC-257 melanoma
[53] = test system: UACC-62 melanoma
[54] = test system: UO-31 renal
[55] = test system: DMS 114 small cell lung
[56] = test system: K-562 leukemia

Cc1cc(C(C)C)cc(O)c(=O)c1
TGI [1]: > 100 µM | TGI [2]: > 100 µM | TGI [3]: > 100 µM | TGI [4]: > 100 µM | TGI [5]: > 100 µM | TGI [6]: > 100 µM | TGI [7]: > 100 µM | TGI [8]: > 100 µM | TGI [9]: > 100 µM | TGI [10]: > 100 µM | TGI [11]: > 100 µM | TGI [12]: > 100 µM | TGI [13]: > 100 µM | TGI [14]: > 100 µM | TGI [15]: > 100 µM | TGI [16]: > 100 µM | TGI [17]: > 100 µM | TGI [18]: > 100 µM | TGI [19]: > 100 µM | TGI [20]: > 100 µM | TGI [21]: > 100 µM | TGI [22]: > 100 µM | TGI [23]: > 100 µM | TGI [24]: > 100 µM | TGI [25]: > 100 µM | TGI [26]: > 100 µM | TGI [27]: > 100 µM | TGI [28]: > 100 µM | TGI [29]: > 100 µM | TGI [30]: > 100 µM | TGI [31]: > 100 µM | TGI [32]: > 100 µM | TGI [33]: > 100 µM | TGI [34]: > 100 µM | TGI [35]: > 100 µM | TGI [36]: > 100 µM | TGI [37]: > 100 µM | TGI [38]: > 100 µM | TGI [39]: > 100 µM | TGI [40]: > 100 µM | TGI [41]: > 100 µM | TGI [42]: > 100 µM | TGI [43]: > 100 µM | TGI [44]: > 100 µM | TGI [45]: > 100 µM | TGI [46]: > 100 µM | TGI [47]: > 100 µM | TGI [48]: > 100 µM | TGI [49]: > 100 µM | TGI [50]: > 100 µM | TGI [51]: > 100 µM | TGI [52]: > 100 µM | TGI [53]: > 100 µM | TGI [54]: > 100 µM

COc1ccc(C(O)c2cc(OC)c(OC)c(OC)c2)cc1 (stereo not given)
TGI [1]: > 100 µM | TGI [2]: > 100 µM | TGI [3]: > 100 µM | TGI [4]: > 100 µM | TGI [5]: > 100 µM | TGI [6]: > 100 µM | TGI [7]: 26.4 µM | TGI [8]: > 100 µM | TGI [55]: 37.5 µM | TGI [9]: > 100 µM | TGI [10]: > 100 µM | TGI [12]: > 100 µM | TGI [13]: > 100 µM | TGI [14]: 39.5 µM | TGI [15]: > 100 µM | TGI [16]: > 100 µM | TGI [17]: > 100 µM | TGI [18]: > 100 µM | TGI [19]: > 100 µM | TGI [56]: > 100 µM | TGI [20]: > 100 µM | TGI [22]: > 100 µM | TGI [23]: > 100 µM | TGI [24]: 83.3 µM | TGI [25]: > 100 µM | TGI [26]: > 100 µM | TGI [27]: > 100 µM | TGI [28]: > 100 µM | TGI [29]: > 100 µM | TGI [30]: 35.5 µM | TGI [31]: 47 µM | TGI [32]: > 100 µM | TGI [33]: > 100 µM | TGI [34]: > 100 µM | TGI [35]: > 100 µM | TGI [36]: 30.6 µM | TGI [37]: > 100 µM | TGI [38]: > 100 µM | TGI [39]: 29.2 µM | TGI [40]: 63.7 µM | TGI [41]: > 100 µM | TGI [42]: 42.2 µM | TGI [44]: > 100 µM | TGI [45]: > 100 µM | TGI [47]: > 100 µM | TGI [49]: > 100 µM | TGI [50]: > 100 µM | TGI [51]: > 100 µM | TGI [52]: > 100 µM | TGI [53]: > 100 µM | TGI [54]: > 100 µM

Source: PubChem BioAssay (NCI)
